From patent publication US7772430B2, “Derivatives of arylsulfonamido-substituted hydroxamic acid as matrix metalloproteinases inhibitors” (Protera S.R.L., priority 2004, dated 2010) come the findings set out here.

In series [1] the target is T1, Catalytic domain of MMP-12 (Homo sapiens, UniProt P39900).
T1 construct: Catalytic domain of MMP-12 was cloned, expressed and purified; made in house
The series is described as follows: In vitro inhibition test, fluorogenic peptide substrate (Knight et al.). To be noted: 298 K, pH 7, 1% DMSO; stated in words only. It is filed as biochemical. The protocol:
The compounds of the invention, prepared as above described, were tested in vitro according to the method reported by Knight et al. in FEBS Lett 1992, 296 (3):263.
Catalytic domain of MMP-12 was cloned, expressed and purified according to the procedure reported in Banci et al. Journal of Molecular Catalysis A: Chemical, 2003, Vol. 204-205, pp. 401-408). Preparation of catalytic domain of MMP-1 was performed as follows: proMMP-1 cDNA was cloned into the pET21 (Novagen) expression vector. The recombinant vector was transformed into Escherichia Coli BL21 cells. The bacteria were grown in 2 XYt media and incubated at 37° C. When the cells reached the exponential growth phase, the expression of the protein was induced by adding 0.5 mM of IPTG and the incubation was continued further for four hours. […]
The protein was maintained in presence of inhibitor for 5 min before the substrate was added. Subsequently, after addition of peptidic substrate, the increase of fluorescence intensity was measured vs. time (excitation 328 nm, emission 393 nm) using a Varian/Eclipse fluorimeter.
Matrix metalloproteinases cleave peptidic bond glycine-leucine separating coumarinic group from 2,4-dinitrophenol and so causing a high increase of fluorescence intensity under the conditions indicated above. […]

The next series is described as follows: Solubility in water. Type of series: physicochemical. To be noted: stated in words only.

T1 sequence (P39900 106-263 limits assumed): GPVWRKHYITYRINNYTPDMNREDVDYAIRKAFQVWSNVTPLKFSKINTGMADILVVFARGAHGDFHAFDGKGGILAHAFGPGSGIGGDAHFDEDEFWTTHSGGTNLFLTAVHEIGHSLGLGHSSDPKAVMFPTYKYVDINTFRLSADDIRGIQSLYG

Turning to `COc1ccc(S(=O)(=O)NC(CO)C(=O)NO)cc1` (centres unmarked) [Example 7, 3,N-dihydroxy-2-[(4-methoxy-benzenesulfonyl)amino]-propionamide], the “ability to inhibit MMP-12 (from IC50 data)” value in series [1] was “do not have the inhibition activity and selectivity of present compounds of formula (I)”. Further, the solubility in water entry in “Solubility in water” is recorded as “good solubility”.
